Test results: US7829665B2 (priority 2005, dated 2010)
Like-named read-outs stand apart in the source and are kept apart here.

Tests used:
[1] = biological target: T1, full-length NS3/NS4A-2 (HCV NS3 protease) (Hepatitis C virus genotype 1a, UniProt P27958); assay: NS3-NS4 protease assay / NS3 inhibition assay (RETS1 substrate, fluorescence kinetic read); type: biochemical
T1 construct: Recombinant E. coli or Baculovirus full-length NS3 was diluted to 3.33 μM with assay buffer; made in house; host or cells: E. coli or baculovirus (BV) expression system
Procedure, shortened: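 Ki values come from IC50 fits corrected via Ki=IC50/(1+[S]/Km), with Km 2.03 μM for E. coli and 1.74 μM for baculovirus full-length NS3. Enzyme (2 or 3 nM NS3, respectively, complexed with NS4A-2) sat with compound, top concentration 50 microM, for 10 min at room temperature. Cleavage of RETS1 (8 μM working solution) was then followed by fluorescence (335/495 nm) over 30 min.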

[2] = test system: HCV sub-genomic replicon in GS4.3 cells (HuH-7 hepatoma cells); assay: Quantitation by ELISA of Neomycin phosphotransferase II (NPTII) in the HCV sub-genomic replicon, GS4.3; type: cell-based, hepatitis C virus; details: Hepatitis C virus, Huh-7
Procedure, shortened: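 Replicon-bearing HuH-7 (GS4.3) cells were exposed to compounds for 72 h in G418-free medium, top final concentration 10 μM, 1% DMSO. Lysates went to an NPTII ELISA read at 450 nm. Signal was normalised to DMSO-treated wells and EC50 was derived by four-parameter curve fitting.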

[3] = GS4.3 cells, 72 h incubation, NPTII ELISA, read-out: Replicon EC50
[4] = recombinant E. coli or Baculovirus full-length NS3 with NS4A-2, read-out: NS3-NS4 IC50

T1 sequence (P27958 1027-1657): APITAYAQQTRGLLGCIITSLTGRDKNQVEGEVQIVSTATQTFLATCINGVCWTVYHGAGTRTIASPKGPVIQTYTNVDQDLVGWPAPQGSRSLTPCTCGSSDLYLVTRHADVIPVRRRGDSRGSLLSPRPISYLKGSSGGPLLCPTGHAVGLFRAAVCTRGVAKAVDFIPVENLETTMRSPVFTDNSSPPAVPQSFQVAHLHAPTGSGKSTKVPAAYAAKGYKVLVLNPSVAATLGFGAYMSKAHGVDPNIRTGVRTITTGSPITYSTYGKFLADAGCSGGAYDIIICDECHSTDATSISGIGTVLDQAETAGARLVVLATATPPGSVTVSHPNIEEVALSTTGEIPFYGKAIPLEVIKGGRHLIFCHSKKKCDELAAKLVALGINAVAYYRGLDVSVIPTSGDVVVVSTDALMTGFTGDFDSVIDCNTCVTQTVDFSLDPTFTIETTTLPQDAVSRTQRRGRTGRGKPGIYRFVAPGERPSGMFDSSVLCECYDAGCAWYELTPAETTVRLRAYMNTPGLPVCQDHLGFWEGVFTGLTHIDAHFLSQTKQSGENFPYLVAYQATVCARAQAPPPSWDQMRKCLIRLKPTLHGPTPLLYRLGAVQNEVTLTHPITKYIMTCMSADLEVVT

Structure (SMILES)	IC50 [1] [nM]	EC50 [2, 3] [nM]	IC50 [1, 4] [nM]	EC50 ([2]; Table 26, read-out: EC50) [nM]
CC(C)(C)OC(=O)N[C@H]1CCOCC/C=C\[C@@H]2C[C@@]2(C(=O)NS(=O)(=O)C2CC2)NC(=O)[C@@H]2C[C@@H](OC(=O)N3Cc4cccc(F)c4C3)CN2C1=O [Compound 1027, (2R,6S,13aS,14aR,16aS,Z)-6-(tert-butoxycarbonylamino)-14a-(cyclopropylsulfonylcarbamoyl)-5,16-dioxo-2,3,5,6,7,8,10,11,13a,14,14a,15,16,16a-tetradecahydro-1H-cyclopropa(j)pyrrolo[1,2-f][1,6,9]oxadiazacyclopentadecin-2-yl 4-fluoroisoindoline-2-carboxylate]	< 100	< 100	–	–
O=C(N[C@H]1CCCCC/C=C\[C@@H]2C[C@@]2(C(=O)NS(=O)(=O)N2CCCC2)NC(=O)[C@@H]2C[C@@H](OC(=O)N3Cc4cccc(F)c4C3)CN2C1=O)OC1CCCC1 [Compound 216]	–	< 100	< 100	–
CC(C)(C)OC(=O)N[C@H]1COCCC/C=C\[C@@H]2C[C@@]2(C(=O)O)NC(=O)[C@@H]2C[C@@H](OC(=O)N3Cc4cccc(Cl)c4C3)CN2C1=O [Compound 1024]	–	< 100	< 100	–
O=C1N[C@]2(C(=O)O)C[C@H]2/C=C\CCCCC[C@H](Nc2c(N3CCC3)c(=O)c2=O)C(=O)N2C[C@H](OC(=O)N3Cc4cccc(F)c4C3)C[C@@H]12 [Compound 238]	–	< 10000	< 100	–
N[C@H]1CCCCC/C=C\[C@@H]2C[C@@]2(C(=O)NS(=O)(=O)C2CC2)NC(=O)[C@@H]2C[C@@H](OC(=O)N3Cc4cccc(F)c4C3)CN2C1=O [Compound 107]	–	< 10000	< 100	–
CC(C)(C)C(=O)N[C@H]1CCCCC/C=C\[C@@H]2C[C@@]2(C(=O)NC#N)NC(=O)C2C[C@@H](OC(=O)N3Cc4cccc(F)c4C3)CN2C1=O (stereo partly shown) [Compound 640]	–	> 10000	< 100	–
CC(C)(C)OC(=O)N[C@H]1CCCCC/C=C\[C@@H]2C[C@@]2(C(=O)NS(=O)(=O)NC2CCCC2)NC(=O)[C@@H]2C[C@@H](OC(=O)N3Cc4cccc(Cl)c4C3)CN2C1=O [Compound 212]	–	< 1000	< 100	–
O=C1N[C@]2(C(=O)NS(=O)(=O)C3CC3)C[C@H]2/C=C\CCCCC[C@H](NC2CCC2)C(=O)N2C[C@H](OC(=O)N3Cc4cccc(F)c4C3)C[C@@H]12 [Compound 907]	–	< 1000	< 100	–
O=C1N[C@]2(C(=O)NS(=O)(=O)C3CC3)C[C@H]2/C=C\CCCCC[C@H](NC(=S)NC2CCCC2)C(=O)N2C[C@H](OC(=O)N3Cc4cccc(F)c4C3)C[C@@H]12 [Compound 240]	–	< 1000	< 100	–
O=C(N[C@H]1CCC(F)(F)CC/C=C\[C@@H]2C[C@@]2(C(=O)NS(=O)(=O)C2CC2)NC(=O)[C@@H]2C[C@@H](OC(=O)N3Cc4cccc(F)c4C3)CN2C1=O)OC1CCCC1 [Compound 1004]	–	< 100	< 100	–
CN(C)S(=O)(=O)NC(=O)[C@@]12C[C@H]1/C=C\CCCCC[C@H](N)C(=O)N1C[C@H](OC(=O)N3Cc4ccccc4C3)C[C@H]1C(=O)N2 [Compound 202]	–	< 10000	< 100	–
CC(C)(C)OC(=O)N[C@H]1CCC(F)(F)CC/C=C\[C@@H]2C[C@@]2(C(=O)O)NC(=O)[C@@H]2C[C@@H](OC(=O)N3Cc4ccccc4C3)CN2C1=O [Compound 1007]	–	< 10000	< 100	–
O=C(N[C@H]1CCCCC/C=C\[C@@H]2C[C@@]2(C(=O)NS(=O)(=O)N2CC(F)(F)C2)NC(=O)C2C[C@@H](OC(=O)N3Cc4cccc(F)c4C3)CN2C1=O)OC1CCCC1 (stereo partly shown) [Compound 229]	–	< 1000	< 100	–
CC(C)(C)OC(=O)N[C@H]1CCCCCCC[C@@H]2C[C@@]2(C(=O)NS(=O)(=O)C2CC2)NC(=O)[C@@H]2C[C@@H](OC(=O)N3Cc4cccc(F)c4C3)CN2C1=O [Compound 268]	–	< 100	< 100	–
CC(C)(C)OC(=O)N[C@H]1CCCCC/C=C\[C@@H]2C[C@@]2(C(=O)Nc2ccccc2)NC(=O)[C@@H]2C[C@@H](OC(=O)N3Cc4ccccc4C3)CN2C1=O [Compound 601]	–	< 1000	< 100	–
CN(C)C(=O)NC(=O)[C@@]12C[C@H]1/C=C\CCCCC[C@H](NC(=O)OC(C)(C)C)C(=O)N1C[C@H](OC(=O)N3Cc4cccc(F)c4C3)C[C@H]1C(=O)N2 [Compound 235]	–	< 100	< 100	–
CC(C)OC(=O)N[C@H]1CCCCC/C=C\[C@@H]2C[C@@]2(C(=O)NC#N)NC(=O)C2C[C@@H](OC(=O)N3Cc4cccc(F)c4C3)CN2C1=O (stereo partly shown) [Compound 639]	–	> 10000	< 1000	–
CC(C)(C)OC(=O)N[C@H]1CCCCC/C=C\[C@@H]2C[C@@]2(C(=O)NC(=O)c2ccccc2)NC(=O)[C@@H]2C[C@@H](OC(=O)N3Cc4ccccc4C3)CN2C1=O [Compound 705]	–	< 100	< 100	–

Structure (SMILES)	IC50 [1] [nM]	EC50 [2, 3] [nM]	IC50 [1, 4] [nM]	EC50 ([2]; Table 26, read-out: EC50) [nM]
CC(C)(C)OC(=O)N[C@H]1CCCC/C=C\[C@@H]2C[C@@]2(C(=O)NS(=O)(=O)C2CC2)NC(=O)[C@@H]2C[C@@H](OC(=O)N3Cc4cccc(F)c4C3)CN2C1=O [Compound 267]	–	< 100	< 100	–
O=C(N[C@H]1CCCCC/C=C\[C@@H]2C[C@@]2(C(=O)NS(=O)(=O)c2cc(Cl)sc2Cl)NC(=O)[C@@H]2C[C@@H](OC(=O)N3Cc4cccc(Cl)c4C3)CN2C1=O)OC1CCCC1 [Compound 174]	–	< 100	< 100	–
CC(CO)(CO)C(=O)N[C@H]1CCCCC/C=C\[C@@H]2C[C@@]2(C(=O)NS(=O)(=O)C2CC2)NC(=O)[C@@H]2C[C@@H](OC(=O)N3Cc4cccc(F)c4C3)CN2C1=O [Compound 253]	–	< 10000	< 100	–
CC(C)(C)OC(=O)N[C@H]1CCCCC/C=C\[C@@H]2C[C@@]2(C(N)=O)NC(=O)[C@@H]2C[C@@H](OC(=O)N3Cc4cccc(F)c4C3)CN2C1=O [Compound 648]	–	> 10000	< 1000	–
CC(C)(O)CC(=O)N[C@H]1CCCCC/C=C\[C@@H]2C[C@@]2(C(=O)NS(=O)(=O)C2CC2)NC(=O)[C@@H]2C[C@@H](OC(=O)N3Cc4cccc(F)c4C3)CN2C1=O [Compound 252]	–	< 10000	< 100	–
O=C(NC1CCCC1)N[C@H]1CCCCC/C=C\[C@@H]2C[C@@]2(C(=O)NS(=O)(=O)C2CC2)NC(=O)C2C[C@@H](OC(=O)N3Cc4cccc(Cl)c4C3)CN2C1=O (stereo partly shown) [Compound 180]	–	< 100	< 100	–
CC(C)(C)OC(=O)N[C@H]1CCCCC/C=C\[C@@H]2C[C@@]2(C(=O)NS(=O)(=O)C2CC2)NC(=O)[C@@H]2C[C@@H](OC(=O)N3CCc4cccc(F)c4C3)CN2C1=O [Compound 257]	–	< 100	< 100	–
COc1ccc(CC(=O)N[C@H]2CCCCC/C=C\[C@@H]3C[C@@]3(C(=O)NS(=O)(=O)C3CC3)NC(=O)[C@@H]3CCCN3C2=O)cc1 [Compound 2138, (1S,4R,6S,14S)N—((Z)-4-Cyclopropanesulfonylaminocarbonyl-2,15-dioxo-3,16-diaza-tricyclo[14.3.0.0^4,6]nonadec-7-ene-14-yl)-2-(4-methoxy-phenyl)-acetamide]	–	–	> 10000	< 1000
CC(C)(C)OC(=O)N[C@H]1CCCCC/C=C\[C@@H]2C[C@@]2(C(=O)NS(=O)(=O)C2CC2)NC(=O)[C@@H]2C[C@@H](OC(=O)N3Cc4cccc(C(F)(F)F)c4C3)CN2C1=O [Compound 170]	–	< 100	< 100	–
CC(C)(C)OC(=O)N[C@H]1CCCCC/C=C\[C@@H]2C[C@@]2(C(=O)NS(=O)(=O)C2CC2)NC(=O)[C@@H]2C[C@@H](OC(=O)N3Cc4cccc(Cl)c4C3)CN2C1=O [Compound 115]	–	< 100	< 100	–
CC(C)(C)OC(=O)N[C@H]1CCN(CC(F)(F)F)CC/C=C\[C@@H]2C[C@@]2(C(=O)NS(=O)(=O)C2CC2)NC(=O)[C@@H]2C[C@@H](OC(=O)N3Cc4cccc(F)c4C3)CN2C1=O [Compound 1032]	–	< 100	< 100	–
COCC1(S(=O)(=O)NC(=O)[C@@]23C[C@H]2/C=C\CCCCC[C@H](NC(=O)OC(C)(C)C)C(=O)N2C[C@H](OC(=O)N4Cc5ccccc5C4)C[C@H]2C(=O)N3)CC1 [Compound 103]	–	< 100	< 100	–
Cc1sc(N[C@H]2CCCCC/C=C\[C@@H]3C[C@@]3(C(=O)NS(=O)(=O)C3CC3)NC(=O)[C@@H]3C[C@@H](OC(=O)N4Cc5cccc(F)c5C4)CN3C2=O)nc1-c1ccccc1 [Compound 928]	–	< 100	< 100	–
CC(C)(O)C(=O)N[C@H]1CCCCC/C=C\[C@@H]2C[C@@]2(C(=O)NS(=O)(=O)C2CC2)NC(=O)[C@@H]2C[C@@H](OC(=O)N3Cc4cccc(F)c4C3)CN2C1=O [Compound 246]	–	< 1000	< 100	–
O=C(N[C@H]1CCCCC/C=C\[C@@H]2C[C@@]2(C(=O)NS(=O)(=O)NCC(F)(F)F)NC(=O)[C@@H]2C[C@@H](OC(=O)N3Cc4cccc(F)c4C3)CN2C1=O)OC1CCCC1 [Compound 223]	–	< 1000	< 100	–
CNC(=O)NC(=O)[C@@]12C[C@H]1/C=C\CCCCC[C@H](NC(=O)OC(C)(C)C)C(=O)N1C[C@H](OC(=O)N3Cc4ccccc4C3)C[C@H]1C(=O)N2 [Compound 702]	–	< 1000	< 1000	–
CC(C)(C)OC(=O)N[C@H]1CCCCC/C=C\[C@@H]2C[C@@]2(C(=O)Nc2cc(C3CC3)[nH]n2)NC(=O)[C@@H]2C[C@@H](OC(=O)N3Cc4cccc(F)c4C3)CN2C1=O [Compound 630]	–	< 10000	< 1000	–
